Measurements taken from article PMC3723905, “Glycogen Phosphorylase Inhibitor N-(3,5-Dimethyl-Benzoyl)-N’-(β-D-Glucopyranosyl)Urea Improves Glucose Tolerance under Normoglycemic and Diabetic Conditions and Rearranges Hepatic Metabolism” (PLoS ONE, 2013).

Biological target: T1, rabbit muscle glycogen phosphorylase (Oryctolagus cuniculus, UniProt P00489)
T1 construct: gene PYGM
T1 sequence (P00489 2-843): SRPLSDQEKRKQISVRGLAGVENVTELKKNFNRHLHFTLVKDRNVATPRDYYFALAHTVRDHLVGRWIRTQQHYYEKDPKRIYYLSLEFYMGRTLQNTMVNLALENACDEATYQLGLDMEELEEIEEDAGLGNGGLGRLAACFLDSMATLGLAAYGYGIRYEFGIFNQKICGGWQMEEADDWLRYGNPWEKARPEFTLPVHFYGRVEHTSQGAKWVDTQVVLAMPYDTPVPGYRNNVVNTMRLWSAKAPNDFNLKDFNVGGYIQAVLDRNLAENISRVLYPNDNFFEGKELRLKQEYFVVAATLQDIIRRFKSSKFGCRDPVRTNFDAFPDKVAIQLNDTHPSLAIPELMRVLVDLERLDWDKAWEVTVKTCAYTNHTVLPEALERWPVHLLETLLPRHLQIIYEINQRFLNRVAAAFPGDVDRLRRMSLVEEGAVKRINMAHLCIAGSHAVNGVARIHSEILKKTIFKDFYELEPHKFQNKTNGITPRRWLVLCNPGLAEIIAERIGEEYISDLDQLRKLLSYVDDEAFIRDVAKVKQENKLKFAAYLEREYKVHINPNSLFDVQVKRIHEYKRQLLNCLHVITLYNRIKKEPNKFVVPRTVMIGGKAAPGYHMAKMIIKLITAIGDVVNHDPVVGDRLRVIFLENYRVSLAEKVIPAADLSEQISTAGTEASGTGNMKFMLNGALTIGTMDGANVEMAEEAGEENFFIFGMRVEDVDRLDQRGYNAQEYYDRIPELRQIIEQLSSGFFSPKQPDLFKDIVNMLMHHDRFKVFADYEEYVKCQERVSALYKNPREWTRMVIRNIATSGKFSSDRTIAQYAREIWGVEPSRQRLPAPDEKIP
Assay: enzyme kinetics on purified rabbit muscle glycogen phosphorylase
Format: biochemical

Structure (SMILES): Cc1cc(C)cc(C(=O)NC(=O)N[C@@H]2O[C@H](CO)[C@@H](O)[C@H](O)[C@H]2O)c1 [compound 4, N-(3,5-dimethyl-benzoyl)-N’-(β-D-glucopyranosyl)urea]
- Ki: 930 ± 50 nM
